These results are taken from patent US7858654B2, “Imidazole-substituted arylamides as P2X3 and P2X2/3 antagonists” (Roche Palo Alto LLC, priority 2007, dated 2010).

One test concerns the target T1, human P2X2/3 receptor (Homo sapiens, UniProt P56373+Q9UBL9).
T1 construct: expressed in transfected cells; host or cells: CHO-K1
T1 sequence (Q9UBL9 1-471): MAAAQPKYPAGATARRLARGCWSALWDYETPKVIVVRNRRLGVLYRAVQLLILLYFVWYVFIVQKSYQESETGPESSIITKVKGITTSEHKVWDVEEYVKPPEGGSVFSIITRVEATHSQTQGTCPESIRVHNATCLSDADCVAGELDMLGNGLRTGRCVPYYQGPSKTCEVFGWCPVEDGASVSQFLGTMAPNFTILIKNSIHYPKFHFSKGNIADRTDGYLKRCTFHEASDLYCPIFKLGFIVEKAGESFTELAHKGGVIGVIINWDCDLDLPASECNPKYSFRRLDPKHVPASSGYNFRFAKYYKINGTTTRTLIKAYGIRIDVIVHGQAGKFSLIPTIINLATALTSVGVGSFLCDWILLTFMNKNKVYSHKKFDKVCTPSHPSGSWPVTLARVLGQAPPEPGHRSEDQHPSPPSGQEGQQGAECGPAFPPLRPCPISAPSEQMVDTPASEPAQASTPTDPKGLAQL
T1 sequence (P56373 1-397): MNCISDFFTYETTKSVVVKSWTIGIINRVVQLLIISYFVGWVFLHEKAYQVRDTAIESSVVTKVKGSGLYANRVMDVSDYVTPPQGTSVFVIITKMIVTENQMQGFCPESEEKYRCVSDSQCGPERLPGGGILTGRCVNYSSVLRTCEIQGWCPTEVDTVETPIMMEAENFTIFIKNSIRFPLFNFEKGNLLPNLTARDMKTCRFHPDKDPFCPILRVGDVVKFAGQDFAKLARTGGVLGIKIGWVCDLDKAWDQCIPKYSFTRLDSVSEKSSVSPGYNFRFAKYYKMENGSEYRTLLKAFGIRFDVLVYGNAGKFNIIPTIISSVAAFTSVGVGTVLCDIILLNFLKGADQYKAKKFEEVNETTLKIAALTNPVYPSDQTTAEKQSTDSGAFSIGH
The experiment in a line: P2X2/3 FLIPR (Fluorometric Imaging Plate Reader) assay. In kind it is cell-based. To be noted: transfected CHO-K1 cells; agonist α,β-meATP 5 μM; Fluo-3 calcium fluorescence; read-out: pKi for the P2X2/3 receptor (converted). As for the experimental part:
(§1) CHO-K1 cells were transfected with cloned rat P2X3 or human P2X2/3 receptor subunits and passaged in flasks. 18-24 hours before the FLIPR experiment, cells were released from their flasks, centrifuged, and resuspended in nutrient medium at 2.5×10^5 cells/ml. The cells were aliquoted into black-walled 96-well plates at a density of 50,000 cells/well and incubated overnight in 5% CO2 at 37° C. On the day of the experiment, cells were washed in FLIPR buffer (calcium- and magnesium-free Hank's balanced salt solution, 10 mM HEPES, 2 mM CaCl2, 2.5 mM probenecid; FB). Each well received 100 μl FB and 100 μl of the fluorescent dye Fluo-3 AM [2 μM final conc.]. […]
(§2) Test compounds (dissolved in DMSO at 10 mM and serially diluted with FB) or vehicle were added to each well (25 μl of a 4× solution) and allowed to equilibrate for 20 minutes at room temperature. The plates were then placed in the FLIPR and a baseline fluorescence measurement (excitation at 488 nm and emission at 510-570 nm) was obtained for 10 seconds before a 100 μl/well agonist or vehicle addition. […] Fluorescence was measured for an additional 2 minutes at 1 second intervals after agonist addition. A final addition of ionomycin (5 μM, final concentration) was made to each well of the FLIPR test plate to establish cell viability and maximum fluorescence of dye-bound cytosolic calcium. […]

Another test deals with T2, rat P2X3 receptor (Rattus norvegicus, UniProt P49654).
T2 construct: expressed in transfected cells; host or cells: CHO-K1
T2 sequence (P49654 1-397): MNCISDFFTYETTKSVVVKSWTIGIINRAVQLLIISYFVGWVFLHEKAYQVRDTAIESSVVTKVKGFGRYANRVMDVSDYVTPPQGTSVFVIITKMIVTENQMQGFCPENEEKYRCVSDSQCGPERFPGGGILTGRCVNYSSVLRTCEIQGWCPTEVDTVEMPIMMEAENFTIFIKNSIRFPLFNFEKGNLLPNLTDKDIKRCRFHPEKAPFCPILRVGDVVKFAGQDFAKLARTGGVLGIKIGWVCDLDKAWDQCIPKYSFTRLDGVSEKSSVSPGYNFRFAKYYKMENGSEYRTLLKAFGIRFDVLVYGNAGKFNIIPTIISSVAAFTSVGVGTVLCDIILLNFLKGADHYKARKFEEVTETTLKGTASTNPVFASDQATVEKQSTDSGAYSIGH
The experiment in a line: P2X3 FLIPR (Fluorometric Imaging Plate Reader) assay. To be noted: transfected CHO-K1 cells; agonist α,β-meATP 1 μM; Fluo-3 calcium fluorescence; read-out: pIC50 for the P2X3 receptor (converted). In kind it is cell-based. The protocol: as §1, §2

Take `Cc1ccc(-c2cc(C(=O)NC(C)c3cnccn3)cc(-n3ccnc3C(C)C)c2)cc1` (centres unmarked) [Compound 27, 5-(2-Isopropyl-imidazol-1-yl)-4′-methyl-biphenyl-3-carboxylic acid (1-pyrazin-2-yl-ethyl)-amide]: at human P2X2/3 receptor, the Ki was around 0.0468 µM.

For `CCc1nccn1-c1cc(C(=O)NCc2cnc(C)cn2)cc(-c2ccc(C)cn2)c1` [Compound 29, 3-(2-Ethyl-imidazol-1-yl)-N-(5-methyl-pyrazrn-2-ylmethyl)-5-(5-methyl-pyridin-2-yl)-benzamide], at rat P2X3 receptor, the IC50 is around 0.00282 µM.
